Source: ChEMBL document CHEMBL1133530, “Classification of multidrug-resistance reversal agents using structure-based descriptors and linear discriminant analysis” (2000)

Species: Mus musculus
Experiment: Tested for the multidrug resistance reversal activity against P388 murine leukemia cell line, activity is expressed as RF(ED50 with no adriamycin (ADR)/ED50 with 200 nM ADR)
Format: functional

Row | Compound | RF
1 | CCN(CC)CCOC1CCC2(C)C(=CCC3C4CCC(=O)C4(C)CCC32)C1 (stereo not drawn) | 60
2 | COc1ccc(CCC2NCCc3cc(OC)c(OC)cc32)cc1 (stereo not drawn) | 100
3 | O=C(OCCN1CCN(CCOC(=O)C(c2ccccc2)c2ccccc2)CC1)C(c1ccccc1)c1ccccc1 | 300
4 | CCCCc1oc2ccccc2c1C(=O)c1cc(I)c(OCCN(CC)CC)c(I)c1 [AMIODARONE] | 5.6
5 | COc1ccc(CCNCC(O)COc2cccc(C)c2)cc1OC (stereo not drawn) [BEVANTOLOL] | 50
6 | NCCc1ccccc1 [PHENETHYLAMINE] | 1
7 | COc1ccc(CCN(C)CCCC(C#N)(c2ccc(OC)c(OC)c2)C(C)C)cc1OC (stereo not drawn) [VERAPAMIL] | 100
8 | OCCN1CCN(CC/C=C2/c3ccccc3Sc3ccc(Cl)cc32)CC1 [ZUCLOPENTHIXOL] | 15
